Results on 1 molecule are retold here after patent publication US8404646B2, “Methods for preventing or treating mitochondrial permeability transition” (Cornell Research Foundation, Inc., priority 2003, dated 2013).

Entries after “also recorded” stand apart in the source; their conditions may differ. Non-standard residues stand in square brackets, D forms with d. Residues, ends and D or L forms follow the SMILES beside them. Dmt = Cc1cc(O)cc(C)c1C[C@H](N)C(=O)O

Data set [1] relates to mitochondrial permeability transition (MPT) in isolated mitochondria. In words: Mitochondrial membrane potential and MPT measured with TMRM. It counts as biochemical, mouse. Particulars: pretreatment 10 μM. The method, then:
In addition to having no direct effect on mitochondrial potential, [Dmt^1]DALDA was able to protect against MPT induced by Ca^2+ overload.
3-Nitropropionic acid (3NP) is an irreversible inhibitor of succinate dehydrogenase in complex II of the electron transport chain. Addition of 3NP (1 mM) to isolated mitochondria caused dissipation of mitochondrial potential and onset of MPT (FIG. 2C).

In data set [2] the test system is isolated mitochondria. In words: Mitochondrial swelling (absorbance 540 nm or light scattering 570 nm). It counts as biochemical, mouse. As to conditions: 50 μM peptide, light scattering at 570 nm. How it is done:
(§1) MPT pore opening results in mitochondrial swelling. We examined the effects of [Dmt^1]DALDA on mitochondrial swelling by measuring reduction in absorbance at 540 nm (A540). The mitochondrial suspension was then centrifuged and cytochrome c in the mitochondrial pellet and supernatant determined by a commercially-available ELISA kit.
(§2) The methods for study are as described above for SS-02. In this example, mitochondrial swelling was measured using light scattering monitored at 570 nm.

Data set [3] relates to isolated mitochondria. In words: Cytochrome c release from isolated mitochondria (ELISA). It counts as biochemical, mouse. Particulars: Ca2+ overload. How it is done: as §1, §2
(In general: An ELISA detects its analyte on a solid surface through an enzyme-linked reagent.)

For data set [4], the system named is isolated perfused guinea pig heart. Put plainly: Ischemia-reperfusion myocardial stunning in isolated perfused heart (Langendorff). As to conditions: 1 nM. How it is done:
Guinea pig hearts were rapidly isolated, and the aorta was cannulated in situ and perfused in a retrograde fashion with an oxygenated Krebs-Henseleit solution (pH 7.4) at 34° C. The heart was then excised, mounted on a modified Langendorff perfusion apparatus, and perfused at constant pressure (40 cm H2O). Contractile force was measured with a small hook inserted into the apex of the left ventricle and the silk ligature tightly connected to a force-displacement transducer. Coronary flow was measured by timed collection of pulmonary artery effluent.
Reperfusion was carried out with the same solution used prior to ischemia.

The subject of a further data set is N2A cells. In words: tBHP-induced mitochondrial depolarization (TMRM, confocal). It counts as cell-based. As to conditions: 50 μM tBHP, 1 nM peptide, 6 h. How it is done: FIG. 7. SS-31 protected against tBHP-induced mitochondrial depolarization and viability. N2A cells were plated in glass bottom dishes and treated with (A) control, or with (B) 50 μM tBHP, alone or with (e) 1 nM SS-31, for 6 hours. Cells were loaded with TMRM (20 nM) and imaged by confocal laser scanning microscopy using ex/em of 552/570 nm.
To investigate whether SS-31 prevents mitochondria) depolarization caused by tBHP, N2A cells were treated with 50 μM tBHP for 6 h.

Data set [5] relates to Sprague-Dawley rats. Put plainly: Myocardial infarction/reperfusion, area at risk and area of infarction. It counts as in vivo, rat. As to conditions: 3 mg/kg IP 30 min before ligation and 5 min before reperfusion; 1 h ischemia, 1 h reperfusion. The method, then: (§3) Adult male […] rats (F344 strain, National Institute of Aging, maintained by Harian Sprague-Dawley Inc.), weighting between 285 and 425 gm, were used. […]
After anesthesia with ketamine (90 mg/kg IP) and xylazine (4 mg/kg IP), a tracheotomy was performed, and the rat was intubated with polyethylene tube and ventilated (Harvard Rodent Ventilator model 683) with room air and a tidal volume of 0.65 ml/100 gm of body weight at 90 breaths per minute. […] Peripheral limb electrodes were inserted subcutaneously and electrocardiogram was monitored throughout the procedure. […]
At the end of reperfusion, the left coronary artery was briefly re-occluded and Evans blue dye solution (2 ml of 2%, Sigma) was slowly injected into the jugular vein to distinguish the perfused area (blue staining) from the area at risk (no staining). […] After a 14-day formalin immersion, the slices were scanned again and all scanned areas were quantified with NIH Imagesoftware. […]

Data set [6] deals with Sprague-Dawley rats. In words: Assessment of arrhythmias in infarction/reperfusion. Particulars: 3 mg/kg IP twice, entire study period. It counts as in vivo, rat. The method, then:
as §3
An ECG was recorded continuously from a standard lead II (AC AMP 700) inserted into the limbs of all rats. […] The cardiac arrhythmias were monitored and assessed in accordance with the Lambeth Convention. […] A validated score was used to quantify the severity of cardiac arrhythmias. […]
All values are expressed as mean±standard error of mean (S.E.M.). […] Differences among groups in body weight, heart rate, arrhythmia, area at risk as a percentage of the left ventricle, and area of infarction as a percentage of the area at risk were analyzed using ANOVA. If significant differences were detected, comparisons between the control group and the 2 treatment groups were conducted using the Mann-Whitney U-test. […]

The nature of data set [7]: Body weight and heart rate during the infarction/reperfusion experiment. It counts as in vivo, rat. The method, then:
Adult male […] rats (F344 strain, National Institute of Aging, maintained by Harian Sprague-Dawley Inc.), weighting between 285 and 425 gm, were used. Twenty-four rats (n=8/group) were randomly assigned to one of three groups: (1) Control group was given 0.4 ml of saline as an intra-peritoneal (IP) injection 30 minutes before the ligation of left anterior descending coronary artery, followed by same IP dose injection 5 minutes before reperfusion; (2) SS-31 group was treated with SS-31 (3 mg/kg dissolved in 0.4 ml of saline) as an IP injection 30 minutes before the ligation followed by same IP dose injection as maintenance 5 minutes before reperfusion; and (3) SS-20 group was treated with SS-20 (3 mg/kg dissolved in 0.4 ml of saline) as an IP injection 30 minutes before the ligation followed by same dose IP injection as maintenance just 5 minutes before reperfusion. Also, Sham-operated rats (n=3) were used to account for possible effects related to the surgical protocol. All procedures were performed in a blinded manner, with the groups assigned letters and their identities unknown to the operators. Likewise, the two independent investigators analyzing the data were blind to the treatment assignments.
After anesthesia with ketamine (90 mg/kg IP) and xylazine (4 mg/kg IP), a tracheotomy was performed, and the rat was intubated with polyethylene tube and ventilated (Harvard Rodent Ventilator model 683) with room air and a tidal volume of 0.65 ml/100 gm of body weight at 90 breaths per minute. Body temperature was maintained at 37° C. by using a heated operating table. The internal jugular vein was surgically exposed and a polyethylene tube was inserted for Evans blue dye solution injection. Peripheral limb electrodes were inserted subcutaneously and electrocardiogram was monitored throughout the procedure.
An ECG was recorded continuously from a standard lead II (AC AMP 700) inserted into the limbs of all rats. The ECG was printed at 25 mm/second. The cardiac arrhythmias were monitored and assessed in accordance with the Lambeth Convention. The assessment was performed in a blinded manner using the original paper recordings. A validated score was used to quantify the severity of cardiac arrhythmias. The score consisted of six types: 0, no ventricular extrasystoles (VES), ventricular tachycardia (VT) or ventricular fibrillation (VF); 1=VES; 2=one to five episodes of VT (more than four coupled VES); 3=more than five episodes of VT and/or one VF; 4=two to five episodes of VF; 5=more than five episodes of VF.
All values are expressed as mean±standard error of mean (S.E.M.). Statistical analyses were performed using SPSS version 10. Differences among groups in body weight, heart rate, arrhythmia, area at risk as a percentage of the left ventricle, and area of infarction as a percentage of the area at risk were analyzed using ANOVA. If significant differences were detected, comparisons between the control group and the 2 treatment groups were conducted using the Mann-Whitney U-test. A two-tailed p<0.05 was regarded as significant.

Turning to `Cc1cc(O)cc(C)c1C[C@H](NC(=O)[C@H](N)CCCNC(=N)N)C(=O)N[C@@H](CCCCN)C(=O)N[C@@H](Cc1ccccc1)C(N)=O` [SS-31, D-Arg-2′6′Dmt-Lys-Phe-NH2] (H-[dR][Dmt]KF-NH2; N-terminus assumed), the “MPT induced by Ca2+ overload” value in data set [1] is “same ability to protect; also recorded: prevents onset of MPT”. Further, the “mitochondrial swelling induced by Ca2+” value in the data set with isolated mitochondria [2] was “same ability to protect; also recorded: inhibited mitochondrial swelling”. Further, the “Ca2+-induced release of cytochrome c” value with isolated mitochondria [3] is given as “same ability to protect”. For the same molecule, in data set [4], the cardiac stunning entry is recorded as “complete inhibition of cardiac stunning”, the “coronary flow throughout reperfusion” value is “well-sustained” and the heart rate result is on record as “no decrease”. Further, the “myocardial contractile force during ischemia-reperfusion” value in data set [4] (30 min global ischemia) was “tolerated ischemia much better than buffer-treated hearts; also recorded: protects myocardial contractile force”. For the same molecule, the “tBHP-induced loss of mitochondrial potential (TMRM fluorescence)” value in the data set with N2A cells is “completely blocked; also recorded: protected”. In the data set with Sprague-Dawley rats [5], the “AAR/LV ratio (area at risk relative to left ventricle)” value is listed as 55.9±1.4% and the “AI/AAR ratio (area of infarction as percentage of area at risk)” value is on record as 53.9±1.1%. In addition, the “Severity and occurrence rate of cardiac arrhythmias (score)” value in the data set with Sprague-Dawley rats [6] turned out to be 5 points. The “Heart Rate Baseline” value in data set [7] (Baseline) was found to be 257 ± 10. In data set [7] (first column), the “Heart Rate Ischemia” value was found to be 184 ± 14 and the “Heart Rate Reperfusion” value was determined as 161 ± 12. Moreover, in data set [7] (second column), the “Heart Rate Ischemia” value came to 169 ± 15 and the “Heart Rate Reperfusion” value is on record as 164 ± 13. For the same molecule, the “Heart Rate Open chest” value in data set [7] (Open chest) was 236 ± 8.
